In PMC6259569, “Pancreatic Lipase Inhibition by C-Glycosidic Flavones Isolated from Eremochloa ophiuroides” (Molecules, 2010):

What follows are molecules tested against T1, porcine pancreatic lipase (Sus scrofa, UniProt P00591) (assay: Pancreatic lipase inhibition assay (p-NPB hydrolysis, OD 405 nm)). Conditions: substrate p-NPB, 37 °C, mean ± S.D. of quadruplicate experiments, read-out: IC50, pancreatic lipase inhibitory activity (concentration that caused a 50% reduction in enzyme activity).
T1 construct: purchased Sigma, St. Louis, MO
T1 sequence (P00591 1-450): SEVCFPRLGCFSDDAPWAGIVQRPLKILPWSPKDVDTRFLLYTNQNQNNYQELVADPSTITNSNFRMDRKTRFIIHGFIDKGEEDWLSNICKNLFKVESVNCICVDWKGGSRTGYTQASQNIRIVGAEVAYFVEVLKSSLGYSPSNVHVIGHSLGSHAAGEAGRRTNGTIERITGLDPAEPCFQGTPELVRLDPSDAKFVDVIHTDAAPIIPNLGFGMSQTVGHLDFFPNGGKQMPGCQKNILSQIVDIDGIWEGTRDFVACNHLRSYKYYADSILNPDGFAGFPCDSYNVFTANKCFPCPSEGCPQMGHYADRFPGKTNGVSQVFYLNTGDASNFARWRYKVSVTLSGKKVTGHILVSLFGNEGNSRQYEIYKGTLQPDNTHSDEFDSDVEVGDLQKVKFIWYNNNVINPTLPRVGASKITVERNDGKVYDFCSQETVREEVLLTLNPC
Format: biochemical
Method: The ability of the compounds to inhibit porcine pancreatic lipase was evaluated using previously reported methods with a minor modification. Briefly, an enzyme buffer was prepared by the addition of 30 μL (10 units) of a solution of porcine pancreatic lipase (Sigma, St. Louis, MO) in10 mM MOPS (morpholinepropanesulphonic acid), and 1 mM EDTA, pH 6.8 to 850 μL of Tris buffer (100 mM Tris-HC1 and 5 mM CaCl2, pH 7.0). […] Pancreatic lipase activity was determined by measuring the hydrolysis of p-NPB to p-nitrophenol at 405 nm using an ELISA reader (Tecan, Infinite F200, Austria). Inhibition of lipase activity was expressed as the percentage decrease in the OD when porcine pancreatic lipase was incubated with the test compounds.

| Structure (SMILES) | IC50 [µM] |
| --- | --- |
| COC(=O)[C@]1(O)C[C@@H](O)[C@@H](O)[C@H](OC(=O)/C=C/c2ccc(O)c(O)c2)C1 [Compound 8, methyl chlorogenate] | 33.6 ± 2 |
| O=C(O)/C=C/c1ccc(O)c(O)c1 [Compound 9, caffeic acid] | > 200 |
| O=c1cc(-c2ccc(O)c(O)c2)oc2cc(O)cc(O)c12 [Compound 6, luteolin] | > 200 |
| O=C(/C=C/c1ccc(O)c(O)c1)O[C@@H]1C[C@](O)(C(=O)O)C[C@@H](O)[C@H]1O [Compound 7, chlorogenic acid] | > 200 |

Now from value to molecule:

| IC50 [µM] | Structure (SMILES) |
| --- | --- |
| 18.5 ± 2.6 | CC1OC(OC2C(c3c(O)cc4oc(-c5ccc(O)c(O)c5)cc(=O)c4c3O)OC(CO)C(O)C2O)C(O)C(O)C1O [Compound 5, isoorientin 2-O-α-L-rhamnoside] |
| 44.6 ± 1.3 | O=c1cc(-c2ccc(O)c(O)c2)oc2cc(O)c([C@@H]3O[C@H](CO)[C@@H](O)[C@H](O)[C@H]3O)c(O)c12 [Compound 3, isoorientin] |
| 31.6 ± 2.7 | O=c1cc(-c2ccc(O)c(O)c2)oc2c([C@@H]3O[C@H](CO)[C@@H](O)[C@H](O)[C@H]3O)c(O)cc(O)c12 [Compound 2, orientin] |
| 50.5 ± 3.9 | C[C@H]1O[C@@H](c2c(O)cc3oc(-c4ccc(O)c(O)c4)cc(=O)c3c2O)C[C@H](O)[C@H]1O [Compound 1, luteolin 6-C-β-D-boivinopyranoside] |
